For data set [1], the system named is HepG2 (human liver cancer cell line). Put plainly: MTT cell viability test. It counts as cell-based. Particulars: after 48 h. The method, then: Prior to each experiment, cell viability was determined using an automated cell counter (Countess II FL, Thermo Fisher Scientific, USA). 50 μl of the HepG2 cell suspension was transferred into new tube and 12.5 μl of trypan blue was added. After one minute, 10 μl was taken from the prepared suspension to determine the number of viable cells in 1 ml. The automated cell counter determined the total number of viable cells and the percentage of viability. […] Cells (2 × 10^4/200 μl) were incubated in 96-well microtiter plates for 24 and 48 h in the presence of metal complexes, picolinic acid, and gallium(III) nitrate, at 37 °C in humified atmosphere with 5% CO2. The cells were centrifuged for 10 min at 2500 rpm and 20 °C, supernatant was removed and 180 μl of fresh serum-free medium was added. Then 10 μl of MTT solution with a concentration of 5 mg/ml was added and cells were incubated for next 2–3 h in the dark until a precipitate formed. After centrifugation and removal of supernatant 150 μl of DMSO was added to the cells to dissolve the precipitate. Absorbance at 540 nm was measured using a spectrophotometer.

Data set [2] relates to HeLa (human cervical adenocarcinoma). In words: MTS antiproliferative assay. The method, then: (§1) Cell culture the cell lines A2058 (human metastatic melanoma), BLM (human metastatic melanoma), HCT116 (human colorectal carcinoma), HeLa (human cervical adenocarcinoma), Jurkat (human leukaemic T cell lymphoma). […] Cells were maintained in standard conditions with an atmosphere containing 5% CO2 at 37 °C.
(§2) The antiproliferative activity of Ga(III) complexes GaPic, GaDpic, GaChel, GaCldpic, free ligands (HPic, H2Dpic, H2Chel, H2Cldpic) and cisplatin (cisPt) were evaluated by colorimetric microculture MTS (3-(4,5-dimethylthiazol-2-yl)-5-(3-carboxymethoxyphenyl)-2-(4-sulfophenyl)-2H tetrazolium) assay (Promega, Madison, WI, USA). Cancer and non-cancer cells were seeded at density 5 × 10^3 cells/well in 96-well polystyrene microplates. Twenty-four hours after cell seeding, different concentrations (1.0—100.0 µM) of the compounds were tested. After 72 h of incubation, 10 µL of MTS was added to each well. After an additional 2 h, cell proliferation was evaluated by measuring of absorbance at wavelength 490 nm using the automated Cytation™ 3 Cell Imaging Multi-Mode Reader (Biotek, Winooski, VT, USA). The absorbance of control wells was taken as 100%, and the results were expressed as a percent of untreated control. IC50 values were calculated from MTS analyses.

The subject of data set [3] is Jurkat (human leukaemic T cell lymphoma). In words: MTS antiproliferative assay. The method, then: as §1, §2
The subject of data set [4] is PaTu 8902 (human pancreatic adenocarcinoma). Put plainly: MTS antiproliferative assay. On the procedure:
as §1, §2

Data set [5] has as its system A2058 (human metastatic melanoma). Put plainly: MTS antiproliferative assay. The method, then:
as §1, §2

Data set [6] relates to HCT116 (human colorectal carcinoma). In words: MTS antiproliferative assay. The method, then:
as §1, §2

The test system of data set [7] is MDA-MB-231 (human mammary gland adenocarcinoma). In words: MTS antiproliferative assay. On the procedure: as §1, §2
The subject of data set [8] is Candida parapsilosis (C. parapsilosis) ATCC 22019. In words: Antimicrobial activity, macrodilution method (yeast, growth by A590). It counts as cell-based. Particulars: Yeast, Sabouraud's growth medium, 37 °C, read-out: IC50 C. parapsilosis. On the procedure: (§3) The antimicrobial activities of gallium(III) complexes GaPic, GaDpic, GaChel, GaCldpic, free ligands (HPic, H2Dpic, H2Chel, H2Cldpic) and positive controls (cefoxitin (C), ampicillin (A) and piperacillin (P)) were evaluated by macrodilution method using G^+ bacteria (Firmicutes) Staphylococcus aureus (S. aureus) CCM 3953 (Czech Collection of Microorganisms), G^− bacteria (γ-proteobacteria) Escherichia coli (E. coli) CCM 3988, Pseudomonas aeruginosa (P. aeruginosa) CCM 1959 (Czech Collection of Microorganisms) and the yeast Candida parapsilosis (C. parapsilosis) ATCC 22019 (American type culture collection). Cultures of bacteria (in Mueller–Hinton broth, MHB) and yeasts (in Sabouraud’s growth medium, SB) were incubated under shaking (250 rpm) at 37 °C. The growth of bacteria and yeasts was evaluated by measuring the absorbance of the growing cultures (A590) until the cultures reached the stationary growth phase. The effects of gallium(III) complexes on the growth of filamentous fungi Rhizopus oryzae (R. oryzae) CCM F-8284, Alternaria alternata (A. alternata) CCM F-128 and Microsporum gypseum (M. gypseum) CCM F-8342 (Czech Collection of Microorganisms) were observed by macrodilution method on solidified potato-dextrose growth medium (PDA). During culturing, the diameters of growing fungal colonies were measured at regular intervals. Briefly, the antimicrobial activity (bacteria and yeasts) gallium(III) complexes/ ligands were added to the microbial culture at the beginning of the cultivation-to the lag phase. Pure gallium(III) complexes/ligands were dissolved in DMSO. The final concentration of DMSO never exceeded 1.0 vol. % neither in control nor treated samples. Concentration of gallium(III) complexes used in experimental work for evaluation of antimicrobial activity was used in the range of 0.05–2 mM, for the free ligands in the range of 0.5–2.0 mM in all experiments. […] The IC50 values were evaluated from toxicity curves. All the obtained results of antimicrobial activity were compared to the activity of Ga(NO3)3.

The subject of data set [9] is human dermal fibroblasts (HDF). In words: in vitro. On the procedure:
as §1, §2

Data set [10] has as its system Escherichia coli (E. coli) CCM 3988. In words: Antimicrobial activity, macrodilution method (growth by A590). It counts as cell-based. Conditions: for IC50: Bacteria, MHB, 37 °C, DMSO max 1.0 vol. %, read-out: IC50 E. coli. The method, then: as §3
For data set [11], the system named is Staphylococcus aureus (S. aureus) CCM 3953. The description is as above. The format is cell-based. Conditions: for IC50: Bacteria, MHB, 37 °C, DMSO max 1.0 vol. %, read-out: IC50 S. aureus. On the procedure:
as §3

Data set [12] addresses T1, bovine serum albumin (BSA) (Bos taurus, UniProt P02769).
T1 construct: purchased Sigma-Aldrich Chemicals
Put plainly: BSA fluorescence quenching (Stern-Volmer). The format is binding. Particulars: 0.01 M PBS buffer pH 7.4, 25 °C, λex = 280 nm. The method, then: Fluorescence measurements were carried out on a Varian Cary Eclipse spectrofluorometer. The quenching studies of BSA with the Ga(III) complexes were investigated to determine whether they were able to quench fluorescence of BSA. All measurements were performed at 25 °C in 0.01 M PBS buffer (pH 7.4). The fluorescence spectra were measured at an excitation wavelength of 280 nm, with a slit width of 10 nm for the excitation and emission beams, in the range of 300–450 nm and analysed according to the classical Stern–Volmer Equation: F0/F=1+KSVQ where F0 and F are the fluorescence intensities in the absence and the presence of the quencher, respectively, KSV is the Stern–Volmer constant, and [Q] is the concentration of quencher.

The nature of data set [13]: Complex stability in biological testing medium by time-dependent 1H NMR. Conditions: 300 K, over 96 h. It counts as physicochemical. On the procedure: Nuclear magnetic resonance (NMR) data were collected on a Varian VNMRS 600 spectrometer operating at 599.87 MHz for ^1H. The concentration of all samples was approximately 3 mg/0.6 mL of 1% DMSO-d6/D2O. For comparison, the spectra of pure acids were also measured, while the pH of the solution of acids was adjusted to the same value as the solution of the complexes. The chemical shifts were referenced to the TSP (3-(trimethylsilyl)propionic-2,2,3,3-d4 acid sodium salt) peak (^1H NMR 0.00 ppm). The NMR data were recorded at 300 K, with chemical shifts δ reported in parts per million and coupling constants J in Hertz. All data were analysed using MestReNova 12.0.0 (2017) software. The stability in 1% DMSO-d6/D2O was determined for all samples. […]

The subject of data set [14] is Rhizopus oryzae (R. oryzae) CCM F-8284. In words: Growth of filamentous fungi, macrodilution method on solidified PDA (colony diameter). The format is cell-based. Particulars: solidified potato-dextrose growth medium, read-out: IC50 R. oryzae. The method, then: as §3
Data set [15] has as its system Microsporum gypseum (M. gypseum) CCM F-8342. Described as above. It counts as cell-based. Particulars: Filamentous fungi, solidified potato-dextrose growth medium, read-out: IC50 M. gypseum. On the procedure:
as §3

For data set [16], the system named is Alternaria alternata (A. alternata) CCM F-128. The data set is described as above. Particulars: Filamentous fungi, solidified potato-dextrose growth medium, read-out: IC50 A. alternata. The format is cell-based. The method, then: as §3
The next data set has as its system any model microorganism. In words: Antimicrobial activity, macrodilution method, all model microorganisms together. The format is cell-based. Conditions: free ligands, range 0.5–2.0 mM. On the procedure: as §3, with “Cultures” for “The antimicrobial activities of gallium(III) complexes GaPic, GaDpic, GaChel, GaCldpic, free ligands (HPic, H2Dpic, H2Chel, H2Cldpic) and positive controls (cefoxitin (C), ampicillin (A) and piperacillin (P)) were evaluated by macrodilution method using G^+ bacteria (Firmicutes) Staphylococcus aureus (S. aureus) CCM 3953 (Czech Collection of Microorganisms), G^− bacteria (γ-proteobacteria) Escherichia coli (E. coli) CCM 3988, Pseudomonas aeruginosa (P. aeruginosa) CCM 1959 (Czech Collection of Microorganisms) and the yeast Candida parapsilosis (C. parapsilosis) ATCC 22019 (American type culture collection). Cultures”

A further data set in a line: in vitro. Particulars: human. The method, then:
as §1, §2

Data set [17] relates to Pseudomonas aeruginosa (P. aeruginosa) CCM 1959. In words: Antimicrobial activity, macrodilution method (growth by A590). The format is cell-based. Particulars: Pseudomonas aeruginosa, CCM1959; Bacteria; MHB, 37 °C; DMSO max 1.0 vol. %; read-out: IC50 P. aeruginosa. On the procedure:
as §3

Where [18] appears, read: Homo sapiens, HeLa, 72 h, read-out: Cytotoxic activity IC50 HeLa.
Where [19] appears, read: Homo sapiens, Jurkat, 72 h, read-out: Cytotoxic activity IC50 Jurkat.
[20] abbreviates: Homo sapiens, PaTu 8902, 72 h, read-out: Cytotoxic activity IC50 PaTu 8902.
[21] abbreviates: Homo sapiens, A2058, 72 h, read-out: Cytotoxic activity IC50 A2058.
Setting [22] is: Homo sapiens, HCT-116, 72 h, read-out: Cytotoxic activity IC50 HCT116.
Setting [23] is: Homo sapiens, MDA-MB-231, 72 h, read-out: Cytotoxic activity IC50 MDA-MB-231.
[24] abbreviates: Lodderomyces parapsilosis, ATCC22019.

Where two headings read alike, the source gives them in different places. Some results are limits rather than exact numbers.

T1 sequence (P02769 25-607): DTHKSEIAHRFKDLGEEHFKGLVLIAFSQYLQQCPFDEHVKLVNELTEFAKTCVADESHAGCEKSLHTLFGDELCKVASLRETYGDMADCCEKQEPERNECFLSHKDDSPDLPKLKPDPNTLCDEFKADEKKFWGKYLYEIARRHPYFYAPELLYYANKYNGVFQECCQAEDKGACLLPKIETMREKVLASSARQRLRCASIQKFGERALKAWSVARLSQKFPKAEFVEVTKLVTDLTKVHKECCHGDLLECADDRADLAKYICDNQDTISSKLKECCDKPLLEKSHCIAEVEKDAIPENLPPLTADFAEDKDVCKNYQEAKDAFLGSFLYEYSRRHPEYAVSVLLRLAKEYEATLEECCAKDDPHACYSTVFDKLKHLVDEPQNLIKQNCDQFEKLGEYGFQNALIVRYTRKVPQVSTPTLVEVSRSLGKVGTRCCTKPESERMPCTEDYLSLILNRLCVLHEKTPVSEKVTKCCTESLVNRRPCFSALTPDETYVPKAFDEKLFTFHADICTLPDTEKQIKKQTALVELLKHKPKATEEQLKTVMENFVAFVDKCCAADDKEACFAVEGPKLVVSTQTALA

Take `O=C([O-])c1ccccn1.[Ag+]` [AgPic]: the entries for the “decrease in cell viability of HepG2” value in data set [1] (75 μM) and in [1] (100 μM) were 45% and 40%, respectively.
Turning to `O.O=C([O-])c1cccc(C(=O)[O-])n1.O=C([O-])c1cccc(C(=O)[O-])n1.[Ga+3].[OH3+]` [GaDpic, H3O[Ga(Dpic)2]·H2O], the IC50 worked out at 1140 ± 135 µM in data set [2]; 325 ± 34.9 µM in [3]; 509 ± 32.6 µM in data set [4]; 287 ± 59.3 µM in [5]; 1240 ± 58.9 µM in data set [6]; 308 ± 67.8 µM in data set [7]. Besides, the half-maximal inhibitory concentration (IC50) in data set [8] was greater than 2000 µM; in data set [9], 288 ± 26.6 µM; in data set [10], greater than 2000 µM; in data set [11] it was greater than 2000 µM; in data set [14] it was greater than 2000 µM; in data set [15], greater than 2000 µM. For the same molecule, the IC50 in data set [16] was greater than 2000 µM. Further, in [10] (concentration not given), the “partial inhibition of E. coli growth” value is on record as 30%. Further, the “inhibition of S. aureus growth” value in data set [11] (complex at 2 mM) was found to be 24%. The “Stern–Volmer binding constant Ksv BSA” value in [12] is 68500 M⁻¹. The “stability in 1% DMSO-d6/D2O solution” value in data set [13] is recorded as “stable”.
As for `O=C(O)c1cc(O)cc(C(=O)O)n1` [H2Chel, chelidamic acid], the “effect on the growth of any model microorganism” value in the data set on any model microorganism was “did not affect the growth”. In addition, the IC50 in [2] (setting [18]), in [3] (setting [19]), in data set [4] (setting [20]), in [5] (setting [21]), in [6] (setting [22]) and in [7] (setting [23]) was greater than 200 µM throughout. The IC50 in [8] (setting [24]) was greater than 500 µM; in data set [10] (Escherichia coli, CCM3988) it was greater than 500 µM; in data set [11] (Staphylococcus aureus, CCM3953) it was greater than 500 µM; in data set [17], greater than 500 µM; in [14] (Rhizopus arrhizus) it was greater than 500 µM; in [15] (Nannizzia gypsea) it was greater than 500 µM. Also, the concentration for half-maximal inhibition (IC50) in [16] (Alternaria alternata) is greater than 500 µM. In the data set “in vitro”, this molecule yielded an IC50 at 72 h greater than 200 µM.
As to `O=C(O)c1cc(Cl)cc(C(=O)O)n1` [H2Cldpic, 4-chlorodipicolinic acid], in the data set on any model microorganism, the “effect on the growth of any model microorganism” value is on record as “did not affect the growth”. The concentration for half-maximal inhibition (IC50) in data set [2] (setting [18]), in [3] (setting [19]), in data set [4] (setting [20]), in [5] (setting [21]), in data set [6] (setting [22]) and in data set [7] (setting [23]) was greater than 200 µM in each case. Also, the IC50 in data set [8] (setting [24]) is greater than 500 µM; in data set [10] (Escherichia coli, CCM3988) it was greater than 500 µM; in data set [11] (Staphylococcus aureus, CCM3953), greater than 500 µM; in data set [17], greater than 500 µM; in data set [14] (Rhizopus arrhizus), greater than 500 µM; in data set [15] (Nannizzia gypsea), greater than 500 µM. Moreover, in [16] (Alternaria alternata), the IC50 was greater than 500 µM. In addition, the IC50 at 72 h in “in vitro” (human dermal fibroblasts (HDF)) is greater than 200 µM.

These data come from PMC10415494, “Ga(III) pyridinecarboxylate complexes: potential analogues of the second generation of therapeutic Ga(III) complexes?” (Journal of Biological Inorganic Chemistry, 2023).
